ChEMBL document CHEMBL3046649, “Fungitoxic and Phytotoxic Activities of Cinnamic Acid Esters and Amides” (2000)

Experiments:
Pythium [1] = experiment: microbe, parasite or virus in culture; format: functional; conditions: read-out: GI
Description: Fungitoxic activity against Pythium sp. assessed as mycelial growth inhibition at 100 ppm after 4 to 5 days by agar dilution method

[2] = tested on: Brassica rapa subsp. chinensis; experiment: whole plant or invertebrate; format: functional; conditions: 72 h, read-out: GI
Description: Phytotoxicity against Brassica rapa subsp. chinensis assessed as growth inhibition of radicle at 100 ppm treated to seeds after 3 days

Athelia rolfsii [3] = experiment: Fungitoxic activity against Athelia rolfsii assessed as mycelial growth inhibition at 10 ppm after 4 to 5 days by agar dilution method; format: functional; conditions: Agroathelia rolfsii; read-out: GI
Pythium [4] = experiment: Fungitoxic activity against Pythium sp. assessed as mycelial growth inhibition at 10 ppm after 4 to 5 days by agar dilution method; conditions: read-out: GI
[5] = tested on: Brassica rapa subsp. chinensis; experiment: whole plant or invertebrate; format: functional; conditions: 72 h, read-out: GI; remark: listed apart in the source
Description: Phytotoxicity against Brassica rapa subsp. chinensis assessed as growth inhibition of hypocotyl at 100 ppm treated to seeds after 3 days

Athelia rolfsii [6] = experiment: microbe, parasite or virus in culture; format: functional; conditions: Agroathelia rolfsii, read-out: GI
Description: Fungitoxic activity against Athelia rolfsii assessed as mycelial growth inhibition at 100 ppm after 4 to 5 days by agar dilution method

Row | Compound | inhibition of growth at 100 ppm (Pythium [1]) [%] | inhibition of growth at 100 ppm [2] [%] | inhibition of growth at 10 ppm (Athelia rolfsii [3]) [%] | inhibition of growth at 10 ppm (Pythium [4]) [%] | inhibition of growth at 100 ppm [5] [%] | inhibition of growth at 100 ppm (Athelia rolfsii [6]) [%]
1 | CCC(C)NC(=O)/C=C/c1ccc(C(C)C)cc1 (centres undefined) [N-SEC-BUTYL-3-(4-ISOPROPYLPHENYL)ACRYLAMIDE] | 73 | 46 | 33 | 36 | 29 | 84
2 | CCC(C)NC(=O)/C=C/c1ccccc1 (centres undefined) [N-SEC-BUTYLCINNAMAMIDE] | 47 | 77 | 35 | 0 | 56 | 95
3 | CC(C)(C)NC(=O)/C=C/c1ccccc1 [N-TERT-BUTYLCINNAMAMIDE] | 71 | 73 | 26 | 14 | 34 | 92
4 | CCCCCOC(=O)/C=C/c1ccc(Cl)cc1Cl [PENTYL 3-(2,4-DICHLOROPHENYL)ACRYLATE] | 43 | 0 | 14 | 9 | 22 | 75
5 | CCCCCOC(=O)/C=C/c1ccc(Cl)cc1 [PENTYL 3-(4-CHLOROPHENYL)ACRYLATE] | 58 | 22 | 20 | 17 | 27 | 82
6 | CCCCCOC(=O)/C=C/c1ccc(C(C)C)cc1 [PENTYL 3-(4-ISOPROPYLPHENYL)ACRYLATE] | 51 | 0 | 13 | 3 | 29 | 79
7 | O=C(/C=C/c1ccc(Cl)cc1Cl)OCCc1ccccc1 [PHENETHYL 3-(2,4-DICHLOROPHENYL)ACRYLATE] | 63 | 0 | 0 | 21 | 32 | 79
8 | O=C(/C=C/c1ccc(Cl)cc1)OCCc1ccccc1 [PHENETHYL 3-(4-CHLOROPHENYL)ACRYLATE] | 60 | 31 | 9 | 13 | 36 | 84
9 | CC(C)c1ccc(/C=C/C(=O)OCCc2ccccc2)cc1 [PHENETHYL 3-(4-ISOPROPYLPHENYL)ACRYLATE] | 49 | 0 | 10 | 13 | 36 | 70
10 | CCCOC(=O)/C=C/c1ccc(Cl)cc1Cl [PROPYL 3-(2,4-DICHLOROPHENYL)ACRYLATE] | 77 | 79 | 32 | 14 | 41 | 84
11 | CCCOC(=O)/C=C/c1ccc(Cl)cc1 [PROPYL 3-(4-CHLOROPHENYL)ACRYLATE] | 87 | 78 | 41 | 8 | 40 | 97
12 | CCCOC(=O)/C=C/c1ccc(C(C)C)cc1 [PROPYL 3-(4-ISOPROPYLPHENYL)ACRYLATE] | 68 | 5 | 43 | 13 | 8 | 89
13 | CCCOC(=O)/C=C/c1ccccc1 [PROPYL CINNAMATE] | 95 | 7 | 40 | 18 | 31 | 86
14 | CCC(C)OC(=O)/C=C/c1ccccc1 (centres undefined) [SEC-BUTYL CINNAMATE] | 69 | 20 | 40 | 21 | 18 | 70
